Data taken from patent publication US4847271A, “Antihypercholesterolemic β-lactones” (Merck & Co., Inc., priority 1987, dated 1989).
Where two headings read alike, the source gives them in different places.

Target: T1, HMG-CoA synthase (Rattus norvegicus, UniProt P17425)
T1 construct: The livers from male Charles River CD rats (225-350 g) were homogenized in 0.25 M sucrose; from tissue; host or cells: rat liver (male Charles River CD rats), 100,000×g supernatant, ammonium sulfate precipitate, DEAE-52 fraction
T1 sequence (P17425 1-520): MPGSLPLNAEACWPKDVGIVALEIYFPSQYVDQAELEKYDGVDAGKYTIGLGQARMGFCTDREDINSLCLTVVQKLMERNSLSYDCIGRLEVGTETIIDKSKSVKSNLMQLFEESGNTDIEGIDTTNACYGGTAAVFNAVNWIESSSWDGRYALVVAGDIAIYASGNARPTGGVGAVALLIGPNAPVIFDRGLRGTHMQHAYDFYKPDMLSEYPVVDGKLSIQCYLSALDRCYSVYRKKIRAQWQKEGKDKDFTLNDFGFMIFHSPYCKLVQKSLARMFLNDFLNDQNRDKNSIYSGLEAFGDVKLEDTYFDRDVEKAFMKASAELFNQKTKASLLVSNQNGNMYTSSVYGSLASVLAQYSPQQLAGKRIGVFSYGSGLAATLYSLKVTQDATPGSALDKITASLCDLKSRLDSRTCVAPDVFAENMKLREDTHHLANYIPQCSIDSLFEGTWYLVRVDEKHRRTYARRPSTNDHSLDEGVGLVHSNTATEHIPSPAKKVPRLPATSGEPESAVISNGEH
Experiment: HMG-CoA synthase inhibition assay (in vitro, enzyme partially purified from rat liver)
Format: biochemical
Procedure: The intrinsic HMG-CoA synthase inhibition activity of the compounds of this invention is measured by the standard in vitro protocol described below:
The livers from male Charles River CD rats (225-350 g) were homogenized in 0.25 M sucrose which was adjusted with phenylmethylsulfonylfluoride (PMSF) and N-p-tosyl-1-lysine chloromethyl ketone (TLCK) so that the final concentration of each was 50 and 25 μg/ml, respectively. The homogenate was centrifuged at 15,000×g for 20 minutes, the supernatant filtered through a fine nylon screen to remove most of the fat layer and recentrifuged at 100,000×g for 1 hour. This supernatant was removed and 1 M potassium phosphate, dithiothreitol (DTT) and ethylene glycolbis(β-aminoethyl ether)-N,N,N',N'-tetraacetic acid (EGTA) added to give a final concentration of 0.1 M (pH 7.2), 0.5 mM and 0.1 mM, respectively. Solid ammonium sulfate was added to 50% saturation to the protein solution, it was centrifuged at 15,000×g and the […]. This precipitated protein could be stored at -70° for at least one month with very little loss of activity. The ammonium sulfate rrecipitate was dissolved in an minimal amount of 0.06 M potassium phosphate buffer (pH 7.2) containing 0.5 mM dithiothreitol and 0.1 mM EGTA (referred to as 0.06 M phosphate buffer) and dialyzed overnight against 2 liters of the same buffer to remove the ammonium sulfate and to inactivate HMG-CoA lyase [Clinkenbeard, et al., J. Biol. Chem 250, 3108-3116(1975)].
The dialyzed extract was added to a column of DEAE-52 (Whatman) which had been equilibrated with 0.06 M phosphate buffer (10 mg of protein to 1 ml bed volume of the resin). The DEAE-cellulose was eluted with 0.06 M Phosphate buffer until the optical density at 280 nm was essentially zero. This fraction contained the β-ketoacetyl-CoA thiolase activity. The HMG-CoA synthase was eluted from the column with 0.1 M phosphate buffer (pH 7.2) containing 0.5 mM DTT and 0.1 mM EGTA, and was virtually free of all thiolase activity. The protein was precipitated by the addition of ammonium sulfate to give 50% saturation. This solution was stirred for 10 minutes at 4° C. and the precipitate collected by centrifugation at 15,000 rpm for 10 minutes. The supernatant was discarded and the precipitate dissolved in a minimum of 0.06 M phosphate buffer, pH 7.2 (about 10 ml) and the enzyme stored at -80° C.
HMG-CoA Synthase Inhibition Assay
Enzyme protein (ca. 24 μg) was added to a solution containing 117 mM Tris-HCl (pH 8.0), 11.7 mM MgCl2, 1.17 mM Ethylenediaminetetraacetic acid (EDTA), 0.58 mM dithiothreitol, and the indicated concentrations of the test compound (added as a 2 μg/ml solution in dimethylsulfoxide). The incubation took place in a volume of 0.085 ml at 30° in a shaking water bath. After 5 minutes, 15 μl of a solution containing acetoacetyl-CoA and 0.1 μCi of 1-[^14 C]-acetyl-CoA was added to give a final concentrations of 0.1 and 0.4 mM, respectively. The incubation was continued for 10 more minutes and the reaction stopped by the addition of 50 μl of the assay mixture to 0.2 ml of 6N HCl in a glass scintillation vial. The vial was heated for 1 hour at 120° after which time 0.2 ml more of 6N HCl was again added to each vial and the heating continued for another hour. Following this, 1.0 ml of 0.9% saline was added to each vial and finally 10 ml of scintillation liquid. Radioactivity was determined in a Packard Tri-Carb liquid scintillation counter. Percent inhibition is calculated by the formula: [formula] IC50 values were determined by plotting the log of the concentration of the test compound verses the percentage inhibition and fitting a straight line to the resulting data by using the least squares method.

[1] = HMG-CoA synthase activity, 5 min preincubation, 30°, read-out: IC50

Compound | IC50 [1] | other results
COc1ccc(C(OCC2C(=O)OC2CCCCC(C)CC(C)=CC(C)=CC(=O)O)(c2ccccc2)c2ccccc2)cc1 (stereo not drawn) [Example 15, 11-(3-anisyldiphenylmethyloxymethyl-4-oxo-2-oxetano)-3,5,7-trimethyl-2,4-undecadienoic acid] | 10 µM | –
CC(=CC(=O)Sc1ccccn1)C=C(C)CC(C)CCCCC1OC(=O)C1CO (stereo not drawn) [2-pyridyl 11-(3-hydroxymethyl-4-oxo-2-oxetano)-3,5,7-trimethyl-2,4-undecadienthioate] | 0.12 µM | –
COC(=O)C=C(C)C=C(C)CC(C)CCCCC1OC(=O)C1COC(=O)CCC(=O)O (stereo not drawn) [methyl 11-[3-(3-carboxypropionyloxymethyl)-4-oxo-2-oxetano]-3,5,7-trimethyl-2,4-undecadienoate] | 2.4 µM | –
CCCCCCNC(=O)C=C(C)C=C(C)CC(C)CCCCC1OC(=O)C1CO (stereo not drawn) [Example 7, N-n-hexyl 11-(3-hydroxymethyl-4-oxo-2-oxetano)-3,5,7-trimethyl-2,4-undecadienamide] | 0.2 µM | –
C=CCOCC1C(=O)OC1CCCCC(C)CC(C)=CC(C)=CC(=O)OC (stereo not drawn) [Example 13, methyl 11-[3-(2-propenyloxymethyl)-4-oxo-2-oxetano]-3,5,7-trimethyl-2,4-undecadienoate] | 1 µM | –
methyl 11-(3-urethanylmethyl)-4-oxo-2-oxetano)-3,5,7-trimethyl-2,4-undecadienoate | – | percent inhibition (at 40 μg/ml): 80.6%
CCOCC1C(=O)OC1CCCCC(C)CC(C)=CC(C)=CC(=O)OC (stereo not drawn) [Example 12, methyl 11-(3-ethoxymethyl-4-oxo-2-oxetano)-3,5,7-trimethvl-2.4-undecadienoate] | 0.7 µM | –
COCC1C(=O)OC1CCCCC(C)CC(C)=CC(C)=CC(=O)OC(c1ccccc1)c1ccccc1 (stereo not drawn) [Example 14 Step B, Diphenylmethyl 11-(3-methoxymethyl-4-oxo-2-oxetano)-3,5,7-trimethyl-2,4-undecadienoate] | – | IC50 (printed as (40 μg/ml) without footnote, read-out: IC50 (value printed in brackets as a concentration) (converted)): 79.3 µM
CC(=CC(N)=O)C=C(C)CC(C)CCCCC1OC(=O)C1CO (stereo not drawn) [Example 8, 11-(3-hydroxymethyl-4-oxo-2-oxetano)-3,5,7-trimethyl-2,4-undecadienamide] | < 0.1 µM | –
CC(=CC(=O)OC(C)(C)C)C=C(C)CC(C)CCCCC1OC(=O)C1CO (stereo not drawn) [Example 20, tert-butyl 11-(3-hydroxymethyl-4-oxo-2-oxetano)-3,5,7-trimethyl-2,4-undecadienoate] | 0.5 µM | –
methyl 11-[3-(N-methylurethanylmethyl)-4-oxo-2-oxetano]-3,5,7-trimethyl-2,4-undecadienoate [Example 19] | – | percent inhibition (at 4.0 μg/ml): 86.2%
COCC1C(=O)OC1CCCCC(C)CC(C)=CC(C)=CC(=O)O (stereo not drawn) [Example 14, 11-(3-methoxymethyl-4-oxo-2-oxetano)-3,5,7-trimethyl-2,4-undecadienoic acid] | 0.11 µM | –
COC(=O)C=C(C)C=C(C)CC(C)CCCCC1OC(=O)C1COC=O (stereo not drawn) [Example 17, methyl 11-(3-formyloxymethyl-4-oxo-2-oxetano)-3,5,7-trimethyl-2,4-undecadienoate] | 0.14 µM | –
CC(=CC(=O)Nc1ccc(Br)cc1)C=C(C)CC(C)CCCCC1OC(=O)C1CO (stereo not drawn) [Example 9, N--(4-bromophenyl)-11-(3-hydroxymethyl-4-oxo-2-oxetano)-3,5,7-trimethyl-2,4-undecadienamide] | 0.1 µM | –
COCC1C(=O)OC1CCCCC(C)CC(C)=CC(C)=CC(=O)OC (stereo not drawn) [Example 11, methyl 11-(3-methoxymethyl-4-oxo-2-oxetano)-3,5,7-trimethyl-2,4-undecadienoate] | 0.27 µM | –
CC(=CC(=O)NCCO)C=C(C)CC(C)CCCCC1OC(=O)C1CO (stereo not drawn) [Example 10, N--(2-hydroxyethyl)-11-(3-hydroxymethyl-4-oxo-2-oxetano)-3,5,7-trimethyl-2,4-undecadienamide] | < 0.1 µM | –
CCC(C)C(=O)OCC1C(=O)OC1CCCCC(C)CC(C)=CC(C)=CC(=O)OC (stereo not drawn) [Example 18, methyl 11-[3-(2-methylbutyryloxymethyl)-4-oxo-2-oxetano]-3,5,7-trimethyl-2,4-undecadienoate] | – | inhibition at 10 µM (at 10^-5 M (IC25), read-out: percent inhibition): 25.4%
COC(=O)C=C(C)C=C(C)CC(C)CCCCC1OC(=O)C1COS(C)(=O)=O (stereo not drawn) [Example 16, methyl 11-(3-methanesulfonyloxymethyl-4-oxo-2-oxetano)-3,5,7-trimethyl-2,4-undecadienoate] | 0.24 µM | –
